In general, EC50 refers to the concentration at which the effect is half-maximal.

The source of these data is patent US10399940B2, “Substituted pyrrolidines and methods of use” (AbbVie S.à.r.l., priority 2016, dated 2019).

Where two headings read alike, the source gives them in different places.

The experiment deals with T1, F508delCFTR (Homo sapiens, UniProt P13569, DEL508-508).
T1 construct: expressed in transfected cells; host or cells: CFBE41o- (human lung derived epithelial cell line), doxycycline-inducible expression
T1 sequence (P13569 with tags, fused parts or gaps DEL508-508): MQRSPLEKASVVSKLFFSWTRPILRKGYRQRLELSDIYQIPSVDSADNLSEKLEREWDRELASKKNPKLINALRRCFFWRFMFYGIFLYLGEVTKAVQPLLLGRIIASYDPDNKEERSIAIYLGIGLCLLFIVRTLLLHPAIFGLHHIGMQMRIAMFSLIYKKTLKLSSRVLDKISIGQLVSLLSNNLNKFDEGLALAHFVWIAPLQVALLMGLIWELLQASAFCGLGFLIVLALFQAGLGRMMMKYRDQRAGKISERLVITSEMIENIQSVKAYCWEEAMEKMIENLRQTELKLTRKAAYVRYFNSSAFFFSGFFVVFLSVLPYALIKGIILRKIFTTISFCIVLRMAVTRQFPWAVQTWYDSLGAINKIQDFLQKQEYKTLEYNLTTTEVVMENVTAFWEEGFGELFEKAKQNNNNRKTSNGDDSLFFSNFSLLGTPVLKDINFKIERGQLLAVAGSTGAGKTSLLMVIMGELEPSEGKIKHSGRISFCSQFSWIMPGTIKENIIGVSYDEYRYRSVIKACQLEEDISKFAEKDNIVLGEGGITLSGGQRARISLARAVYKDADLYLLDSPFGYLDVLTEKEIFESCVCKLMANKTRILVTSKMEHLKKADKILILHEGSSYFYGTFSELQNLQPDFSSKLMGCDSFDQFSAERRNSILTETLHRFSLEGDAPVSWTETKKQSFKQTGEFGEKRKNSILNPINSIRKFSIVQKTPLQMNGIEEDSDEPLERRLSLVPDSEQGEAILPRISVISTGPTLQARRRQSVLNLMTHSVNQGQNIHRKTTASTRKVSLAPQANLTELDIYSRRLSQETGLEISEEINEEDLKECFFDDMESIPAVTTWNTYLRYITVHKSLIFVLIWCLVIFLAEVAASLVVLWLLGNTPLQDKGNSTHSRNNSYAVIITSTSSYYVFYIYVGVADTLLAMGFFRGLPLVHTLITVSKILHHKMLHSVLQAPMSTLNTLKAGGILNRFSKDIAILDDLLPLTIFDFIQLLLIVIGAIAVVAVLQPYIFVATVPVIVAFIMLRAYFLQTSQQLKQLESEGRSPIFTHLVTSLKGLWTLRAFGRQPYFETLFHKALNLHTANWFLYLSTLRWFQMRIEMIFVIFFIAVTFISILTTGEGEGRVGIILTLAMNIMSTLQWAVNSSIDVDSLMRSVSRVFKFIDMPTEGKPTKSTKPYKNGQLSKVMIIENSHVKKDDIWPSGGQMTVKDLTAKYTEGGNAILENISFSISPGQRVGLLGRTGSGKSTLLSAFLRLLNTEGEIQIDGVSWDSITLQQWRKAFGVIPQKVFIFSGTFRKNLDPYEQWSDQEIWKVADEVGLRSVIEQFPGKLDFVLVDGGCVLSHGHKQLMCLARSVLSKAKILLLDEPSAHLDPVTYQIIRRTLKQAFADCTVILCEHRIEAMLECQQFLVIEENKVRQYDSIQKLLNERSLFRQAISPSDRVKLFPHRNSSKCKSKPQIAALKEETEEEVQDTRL
The experiment can be described thus: Cell Surface Expression-Horse Radish Peroxidase (CSE-HRP) assay. It counts as cell-based. To be noted: CFBE41o-F508delCFTR-HRP cells; for Maximum % activity (with co-corrector): with co-corrector (2 μM); for Maximum % activity (with co-corrector) / Maximum % activity (without co-corrector): normalized to on-plate positive control, highest concentration 20 μM. In outline:
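CFBE41o- cells expressed F508delCFTR with HRP in the fourth exofacial loop, induced by 0.5 μg/mL doxycycline for 72 h at 37 °C. Compounds alone or with 2 μM co-corrector ran 18–24 h at 33 °C, 8-point 3-fold from 20 μM. Washed-cell luminol luminescence was normalized to DMSO and positive control, fitted sigmoidally for EC50 (three plates).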

The mark [1] stands for this setting: test compound without co-corrector, 18-24 hours at 33° C., read-out: EC50 (without co-corrector).
[2] abbreviates: with co-corrector (2 μM of 3-[(2R,4R)-4-({[1-(2,2-difluoro-1,3-benzodioxol-5-yl)cyclopropyl]carbonyl}amino)-7-methoxy-3,4-dihydro-2H-chromen-2-yl]benzoic acid), read-out: EC50 (with co-corrector).

With `[2H]C([2H])([2H])Oc1ccc(C(F)(F)F)cc1C([2H])([2H])O[C@H]1[C@H](C(C)(C)C)[C@@H](C(=O)O)N(C(=O)[C@@H]2CCCCO2)[C@H]1c1ccccc1C` [Example 234, (2S,3R,4S,5S)-3-tert-butyl-4-{[{2-[(^2H3)methyloxy]-5-(trifluoromethyl)phenyl}(^2H2)methyl]oxy}-5-(2-methylphenyl)-1-[(2S)-oxane-2-carbonyl]pyrrolidine-2-carboxylic acid], the “Maximum % activity (with co-corrector)” value is on record as “+++ (≥350)” and the “Maximum % activity (without co-corrector)” value is “+++ (≥200)”. The EC50 under setting [1] is < 1 µM. Further, the EC50 under setting [2] was < 1 µM.
Regarding `[2H]C([2H])(O[C@H]1[C@H](C(C)(C)C)[C@@H](C(=O)O)N(C(=O)[C@@H]2CCCCO2)[C@H]1c1ccccc1C)c1cc(C(C)(C)C)ccc1OC` [Example 235, (2S,3R,4S,5S)-3-tert-butyl-4-{[(5-tert-butyl-2-methoxyphenyl)(^2H2)methyl]oxy}-5-(2-methylphenyl)-1-[(2S)-oxane-2-carbonyl]pyrrolidine-2-carboxylic acid], the “Maximum % activity (with co-corrector)” value is “+++ (≥350)” and the “Maximum % activity (without co-corrector)” value is on record as “+++ (≥200)”. Further, under setting [1], the EC50 was < 1 µM. The EC50 under setting [2] is < 1 µM.
As for `Cc1cc(C)c2cc(CO[C@H]3[C@H](C(C)(C)C)[C@@H](C(=O)O)N(C(=O)[C@@H]4CCCCO4)[C@H]3c3ccccc3C)c(Cl)nc2c1` [Example 236, (2S,3R,4S,5S)-3-tert-butyl-4-[(2-chloro-5,7-dimethylquinolin-3-yl)methoxy]-5-(2-methylphenyl)-1-[(2S)-oxane-2-carbonyl]pyrrolidine-2-carboxylic acid], the “Maximum % activity (with co-corrector)” value is reported as “+++ (≥350)”; the “Maximum % activity (without co-corrector)” value was “++ (≥100 and <200)”. In addition, the EC50 under setting [1] fell in the range of 1 to 10 µM. For the same compound, the EC50 under setting [2] lay in the range of 1 to 10 µM.
In the case of `COc1nc2c(C)ccc(C)c2cc1CO[C@H]1[C@H](C(C)(C)C)[C@@H](C(=O)O)N(C(=O)[C@@H]2CCCCO2)[C@H]1c1ccccc1C` [Example 237, (2S,3R,4S,5S)-3-tert-butyl-4-[(2-methoxy-5,8-dimethylquinolin-3-yl)methoxy]-5-(2-methylphenyl)-1-[(2S)-oxane-2-carbonyl]pyrrolidine-2-carboxylic acid], the “Maximum % activity (with co-corrector)” value is recorded as “+++ (≥350)” and the “Maximum % activity (without co-corrector)” value is “+++ (≥200)”. Also, the EC50 under setting [1] fell in the range of 1 to 10 µM. Further, the concentration giving a half-maximal response (EC50) under setting [2] is < 1 µM.
In the same order, the values of `COc1nc2cc(C)cc(C)c2cc1CO[C@H]1[C@H](C(C)(C)C)[C@@H](C(=O)O)N(C(=O)[C@@H]2CCCCO2)[C@H]1c1ccccc1C` [Example 238, (2S,3R,4S,5S)-3-tert-butyl-4-[(2-methoxy-5,7-dimethylquinolin-3-yl)methoxy]-5-(2-methylphenyl)-1-[(2S)-oxane-2-carbonyl]pyrrolidine-2-carboxylic acid] are “+++ (≥350)”, “+++ (≥200)”, 1 to 10 µM and < 1 µM.
In the case of `COc1ccccc1[C@H]1[C@@H](OCc2cc(C3CCC3)cnc2OC)[C@H](C(C)(C)C)[C@@H](C(=O)O)N1C(=O)[C@@H]1CCCCO1` [Example 239, (2S,3R,4S,5S)-3-tert-butyl-4-[(5-cyclobutyl-2-methoxypyridin-3-yl)methoxy]-5-(2-methoxyphenyl)-1-[(2S)-oxane-2-carbonyl]pyrrolidine-2-carboxylic acid], the “Maximum % activity (with co-corrector)” value was “+++ (≥350)”; the “Maximum % activity (without co-corrector)” value was “++ (≥100 and <200)”. Also, the EC50 under setting [1] lay within 1 to 10 µM. Moreover, the EC50 under setting [2] was < 1 µM.
`COc1ccccc1[C@H]1[C@@H](OCc2cc(C(F)(F)F)cnc2OC)[C@H](C(C)(C)C)[C@@H](C(=O)O)N1C(=O)[C@@H]1CCCCO1` [Example 240, (2S,3R,4S,5S)-3-tert-butyl-5-(2-methoxyphenyl)-4-{[2-methoxy-5-(trifluoromethyl)pyridin-3-yl]methoxy}-1-[(2S)-oxane-2-carbonyl]pyrrolidine-2-carboxylic acid]: the “Maximum % activity (with co-corrector)” value was “+++ (≥350)”; the “Maximum % activity (without co-corrector)” value is “++ (≥100 and <200)”. Under setting [1], the EC50 fell in the range of 1 to 10 µM. The EC50 under setting [2] was < 1 µM.
Turning to `COc1ccccc1[C@H]1[C@@H](OCc2cc(C(C)(C)C)cnc2OC)[C@H](C(C)(C)C)[C@@H](C(=O)O)N1C(=O)[C@@H]1CCCCO1` [Example 241, (2S,3R,4S,5S)-3-tert-butyl-4-[(5-tert-butyl-2-methoxypyridin-3-yl)methoxy]-5-(2-methoxyphenyl)-1-[(2S)-oxane-2-carbonyl]pyrrolidine-2-carboxylic acid], the “Maximum % activity (with co-corrector)” value was “+++ (≥350)” and the “Maximum % activity (without co-corrector)” value is on record as “+++ (≥200)”. Besides, the EC50 under setting [1] was 1 to 10 µM. Moreover, under setting [2], the concentration for a half-maximal effect (EC50) was < 1 µM.
As for `COc1nc2c(C)cc(C)cc2cc1CO[C@H]1[C@H](C(C)(C)C)[C@@H](C(=O)O)N(C(=O)[C@@H]2CCCCO2)[C@H]1c1ccccc1C` [Example 242, (2S,3R,4S,5S)-3-tert-butyl-4-[(2-methoxy-6,8-dimethylquinolin-3-yl)methoxy]-5-(2-methylphenyl)-1-[(2S)-oxane-2-carbonyl]pyrrolidine-2-carboxylic acid], the “Maximum % activity (with co-corrector)” value is “+++ (≥350)”; the “Maximum % activity (without co-corrector)” value is “++ (≥100 and <200)”. The EC50 under setting [1] was 1 to 10 µM. In addition, under setting [2], the EC50 was 1 to 10 µM.
Regarding `COc1ncc(C2(C)CC2)cc1CO[C@H]1[C@H](C(C)(C)C)[C@@H](C(=O)O)N(C(=O)[C@@H]2CCCCO2)[C@H]1c1ccccc1C` [Example 243, (2S,3R,4S,5S)-3-tert-butyl-4-{[2-methoxy-5-(1-methylcyclopropyl)pyridin-3-yl]methoxy}-5-(2-methylphenyl)-1-[(2S)-oxane-2-carbonyl]pyrrolidine-2-carboxylic acid], the “Maximum % activity (with co-corrector)” value is listed as “+++ (≥350)” and the “Maximum % activity (without co-corrector)” value was “+++ (≥200)”. Further, the EC50 under setting [1] is 1 to 10 µM. In addition, under setting [2], the EC50 was < 1 µM.
For `COc1nc2c(C)cccc2cc1CO[C@H]1[C@H](C(C)(C)C)[C@@H](C(=O)O)N(C(=O)[C@@H]2CCCCO2)[C@H]1c1ccccc1C` [Example 244, (2S,3R,4S,5S)-3-tert-butyl-4-[(2-methoxy-8-methylquinolin-3-yl)methoxy]-5-(2-methylphenyl)-1-[(2S)-oxane-2-carbonyl]pyrrolidine-2-carboxylic acid], the “Maximum % activity (with co-corrector)” value is reported as “+++ (≥350)”; the “Maximum % activity (without co-corrector)” value was “++ (≥100 and <200)”. Further, the EC50 under setting [1] lay within 1 to 10 µM. For the same compound, the 50% effective concentration (EC50) under setting [2] was 1 to 10 µM.
For `COc1ccc(C(C)(C)C)cc1CO[C@H]1[C@H](C(C)(C)C)[C@@H](C(=O)O)N(C(=O)OC(C)C)[C@H]1c1cccnc1OC(C)C` [Example 245, (2S,3R,4S,5S)-3-tert-butyl-4-[(5-tert-butyl-2-methoxyphenyl)methoxy]-1-{[(propan-2-yl)oxy]carbonyl}-5-{2-[(propan-2-yl)oxy]pyridin-3-yl}pyrrolidine-2-carboxylic acid], the “Maximum % activity (with co-corrector)” value is given as “+++ (≥350)” and the “Maximum % activity (without co-corrector)” value is reported as “+++ (≥200)”. Further, the EC50 under setting [1] lay within 1 to 10 µM. Further, the 50% effective concentration (EC50) under setting [2] fell in the range of 1 to 10 µM.
`COc1ccc(C2(C)CCC2)cc1CO[C@H]1[C@H](C(C)(C)C)[C@@H](C(=O)O)N(C(=O)OC(C)C)[C@H]1c1cccnc1OC(C)C` [Example 246, (2S,3R,4S,5S)-3-tert-butyl-4-{[2-methoxy-5-(1-methylcyclobutyl)phenyl]methoxy}-1-{[(propan-2-yl)oxy]carbonyl}-5-{2-[(propan-2-yl)oxy]pyridin-3-yl}pyrrolidine-2-carboxylic acid]: the “Maximum % activity (with co-corrector)” value is given as “+++ (≥350)” and the “Maximum % activity (without co-corrector)” value is “+++ (≥200)”. The EC50 under setting [1] lay in the range of 1 to 10 µM. The EC50 under setting [2] was < 1 µM.
In the case of `COc1ccc(C(C)(C)C)cc1CO[C@H]1[C@H](C(C)(C)C)[C@@H](C(=O)O)N(C(=O)[C@@H]2CCCO2)[C@H]1c1ccccc1C` [Example 247, (2S,3R,4S,5S)-3-tert-butyl-4-[(5-tert-butyl-2-methoxyphenyl)methoxy]-5-(2-methylphenyl)-1-[(2S)-oxolane-2-carbonyl]pyrrolidine-2-carboxylic acid], the “Maximum % activity (with co-corrector)” value is listed as “+++ (≥350)” and the “Maximum % activity (without co-corrector)” value is recorded as “+++ (≥200)”. The concentration giving a half-maximal response (EC50) under setting [1] fell in the range of 1 to 10 µM. Besides, the EC50 under setting [2] was 1 to 10 µM.
On to `COc1nc2c(C)ccc(C)c2cc1CO[C@H]1[C@H](C(C)(C)C)[C@@H](C(=O)O)N(C(=O)C2CCCCC2)[C@H]1c1cccnc1OC(C)C` [Example 248, (2S,3R,4S,5S)-3-tert-butyl-1-(cyclohexanecarbonyl)-4-[(2-methoxy-5,8-dimethylquinolin-3-yl)methoxy]-5-{2-[(propan-2-yl)oxy]pyridin-3-yl}pyrrolidine-2-carboxylic acid], for which the “Maximum % activity (with co-corrector)” value is given as “+++ (≥350)” and the “Maximum % activity (without co-corrector)” value is reported as “+++ (≥200)”. Besides, the EC50 under setting [1] is 1 to 10 µM. Under setting [2], the EC50 is 1 to 10 µM.
